Measurements from patent publication US20160220552A1, “FORMULATIONS FOR CGRP RECEPTOR ANTAGONISTS” (MERCK SHARP & DOHME CORP., priority 2013, published 2016).

Experiments:
[1] = clinical trials; cited from earlier work
[2] = control group; cited from earlier work
[3] = BCS classification / solubility of Compound I; type: physicochemical
[4] = Permeability of Compound I; type: in vitro ADME; conditions: not told

Row | Structure (SMILES) | effectiveness in treating migraine [1] | prevention of headache induced by CGRP infusion [2] | BCS Class [3] | solubility [3] | Papp [4]
1 | NCCCC[C@H](NC(=O)[C@@H](Cc1cc(Br)c(O)c(Br)c1)NC(=O)N1CCC(N2Cc3ccccc3NC2=O)CC1)C(=O)N1CCN(c2ccncc2)CC1 [BIBN4096BS] | effective in treating acute attacks of migraine | able to prevent headache induced by CGRP infusion |  |  | 
2 | C[C@@H]1[C@H](c2ccccc2)C[C@H](NC(=O)c2cnc3c(c2)C[C@@]2(C3)C(=O)Nc3ncccc32)C(=O)N1CC(F)(F)F [Compound I, (S)—N-((3S,5S,6R)-6-methyl-2-oxo-5-phenyl-1-(2,2,2-trifluoroethyl)piperidine-3-yl)-2′-oxo-1′,2′,5,7-tetrahydrospiro[cyclopenta[b]pyridine-6,3′-pyrrolo[2,3-b]pyridine]-3-carboxamide trihydrate] |  |  | BCS Class 4 | low solubility | 16.6 ×10⁻⁶ cm/s
3 | O=C(N[C@@H]1CC[C@@H](c2cccc(F)c2F)CN(CC(F)(F)F)C1=O)N1CCC(n2c(=O)[nH]c3ncccc32)CC1 [telcagepant] | shown antimigraine effectiveness |  |  |  | 
